Results on 21 compounds are retold here after patent US9045445B2, “Glycine transporter-1 inhibitors, methods of making them, and uses thereof” (Albany Molecular Research, Inc., priority 2010, dated 2015).

Counter-ions that a name gives are not always drawn.

For the first experiment, the target named is T1, glycine transporter-1 (GlyT-1) (Homo sapiens, UniProt P48067).
T1 construct: JAR cells (ATCC#HTB-144), which endogenously express GlyT-1; host or cells: JAR human choriocarcinoma cells
T1 sequence (P48067 1-706): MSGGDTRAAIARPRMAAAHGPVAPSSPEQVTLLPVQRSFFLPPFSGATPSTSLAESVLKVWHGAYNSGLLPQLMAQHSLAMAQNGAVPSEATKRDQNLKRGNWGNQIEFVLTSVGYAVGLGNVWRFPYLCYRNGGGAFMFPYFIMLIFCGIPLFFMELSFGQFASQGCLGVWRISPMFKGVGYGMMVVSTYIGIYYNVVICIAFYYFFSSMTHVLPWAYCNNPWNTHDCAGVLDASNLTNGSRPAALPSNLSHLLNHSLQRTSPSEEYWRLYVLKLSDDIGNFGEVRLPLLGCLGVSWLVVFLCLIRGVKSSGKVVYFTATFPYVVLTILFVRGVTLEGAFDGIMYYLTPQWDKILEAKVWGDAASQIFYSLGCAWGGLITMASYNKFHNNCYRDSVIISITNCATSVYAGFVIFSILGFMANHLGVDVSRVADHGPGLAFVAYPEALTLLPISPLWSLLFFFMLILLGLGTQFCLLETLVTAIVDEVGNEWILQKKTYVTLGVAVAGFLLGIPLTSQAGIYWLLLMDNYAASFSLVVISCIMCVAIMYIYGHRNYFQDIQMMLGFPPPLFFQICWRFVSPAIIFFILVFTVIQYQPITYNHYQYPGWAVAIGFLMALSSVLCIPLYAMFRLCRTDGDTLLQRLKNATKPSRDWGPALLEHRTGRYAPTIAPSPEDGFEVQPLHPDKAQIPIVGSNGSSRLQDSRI
Description: [14C]glycine uptake assay in JAR cells endogenously expressing GlyT-1 (scintillation proximity). In kind it is cell-based. Conditions: GlyT-1 IC50 (nM). Here is the method:
The inhibitory activity of compounds of the invention against the glycine transporter-1 (GlyT-1) can be determined by the following scintillation proximity assay. The potency of each compound was assessed in inhibiting the uptake of radiolabeled glycine ([^14C]glycine) using the human choriocarcinoma cell line, JAR cells (ATCC#HTB-144), which endogenously express GlyT-1. In brief, 50,000 JARS cells were plated per well of tissue culture treated 96-well Cytostar-T plate (PerkinElmer) in RPMI media supplemented with 10% heat inactivated FBS and allowed to attach overnight at 37° C. and 5% CO2. Compounds were serially diluted 3-fold in DMSO generating a nine (9) data point response curve for each compound. Two replicates were performed per determination. The compounds were then diluted into Uptake Buffer (10 mM Hepes, 120 mM NaCl, 2 mM KCl, 1 mM CaCl2 and 1 mM MgCl2, 5 mM Alanine, pH 7.4) with a final DMSO concentration of 0.75% (v/v). Following the overnight incubation, the media was replaced with Uptake Buffer in the presence or absence of diluted compound and pre-incubated at room temperature for 10 minutes prior to the addition of [^14C]glycine at a final concentration of 5 μM. Following a 3 hour incubation period at 37° C. and 5% CO2, the plates were sealed and placed at room temperature in the dark for 15 minutes prior to quantification of incorporated radioactivity using a MicroBeta Trilux scintillation plate reader (PerkinElmer). Data were fit into a four-parameter model to determine the inhibitor concentration at half-maximal response (IC50). The assay window was established by control wells incubated with [^14C]glycine in the presence or absence of 10 mM non-labeled glycine. A dose response curve for a synthesized reference standard was generated on every plate as a positive control.
The term IC50 denotes the concentration that gives 50% inhibition. The compound `CCCS(=O)(=O)N1CCN(C2(CNC(=O)c3c(F)cccc3F)CC3CC3C2)CC1` (stereo not drawn) [compound 199, 2,6-Difluoro-N-((3-(4-(propylsulfonyl)piperazin-1-yl)bicyclo[3.1.0]hexan-3-yl)methyl)benzamide Hydrochloride] showed a 50% inhibitory concentration (IC50) of 621 nM.

Staying with this experiment, now noted: JAR cells, [14C]glycine 5 μM, 3 hour incubation; read-out: GlyT-1 IC50.
As for `CCCS(=O)(=O)N1CCN(C2(CNC(=O)c3c(F)cccc3OC(F)(F)F)CCC(F)(F)CC2)CC1` [compound 158, N-((4,4-Difluoro-1-(4-(propylsulfonyl)piperazin-1-yl)cyclohexyl)methyl)-2-fluoro-6-(trifluoro-methoxy)benzamide Hydrochloride], the IC50 is 35 nM.

As for `Cn1cnc(S(=O)(=O)N2CCN(C3(CNC(=O)c4ccc(Cl)cc4Cl)CCC(F)(F)CC3)CC2)c1` [compound 178, 2,4-Dichloro-N-((4,4-difluoro-1-(4-(1-methyl-1H-imidazol-4-ylsulfonyl)piperazin-1-yl)cyclohexyl)methyl) benzamide Hydrochloride], the 50% inhibitory concentration (IC50) was 5 nM.

For `CCS(=O)(=O)N1CCN(C2(CNC(=O)c3ccc(C(F)(F)F)cc3C(F)(F)F)CCC(F)(F)CC2)C(C)C1` (racemic) [compound 218, (±)-N-((1-(4-(Ethylsulfonyl)-2-methylpiperazin-1-yl)-4,4-difluorocyclohexyl)methyl)-2,4-bis(trifluoromethyl) benzamide Hydrochloride], the 50% inhibitory concentration (IC50) came out at 86 nM.

Regarding `CCS(=O)(=O)N1CCN(C2(CNC(=O)c3ccc(C(F)(F)F)cc3C(F)(F)F)CCC(F)(F)CC2)CC1` [compound 204, N-((1-(4-(Ethylsulfonyl)piperazin-1-yl)-4,4-difluorocyclohexyl)methyl)-2,4-bis(trifluoromethyl) benzamide Hydrochloride], the 50% inhibitory concentration (IC50) stood at 95 nM.

Take `Cn1cnc(S(=O)(=O)N2CCN(C3(CNC(=O)c4ccc(F)cc4C(F)(F)F)CCC(F)(F)CC3)CC2)c1` [compound 169, N-((4,4-Difluoro-1-(4-(1-methyl-1H-imidazol-4-ylsulfonyl)piperazin-1-yl)cyclohexyl)methyl)-4-fluoro-2-(trifluoromethyl)benzamide Hydrochloride]: the IC50 came to 2 nM.

Regarding `O=C(NCC1(N2CCN(S(=O)(=O)N3CCC3)CC2)CCC(F)(F)CC1)c1ccc(C(F)(F)F)cc1Cl` [compound 271, N-((1-(4-(azetidin-1-ylsulfonyl)piperazin-1-yl)-4,4difluorocyclohexyl)methyl)-2-chloro-4-(trifluoromethyl)benzamide Hydrochloride], the half-maximal inhibitory concentration (IC50) came out at 350 nM.

Turning to `CCCS(=O)(=O)N1CCN(C2(CNC(=O)c3ccccc3F)CCC(F)(F)CC2)CC1` [compound 131, N-((4,4-Difluoro-1-(4-(propylsulfonyl)piperazin-1-yl)cyclohexyl)methyl)-2-fluorobenzamide Hydrochloride], the IC50 is 291 nM.

`CCS(=O)(=O)N1CCN(C2(CNC(=O)c3c(F)ccc(Cl)c3F)CCC(F)(F)CC2)CC1` [compound 213, 3-Chloro-N-((1-(4-(ethylsulfonyl)piperazin-1-yl)-4,4-difluorocyclohexyl)methyl)-2,6-difluorobenzamide Hydrochloride]: the IC50 amounted to 875 nM.

Regarding `CCCS(=O)(=O)N1CCN(C2(CNC(=O)c3ccc(C)c(Cl)c3)CCCCC2)CC1` [compound 31, 3-Chloro-4-methyl-N-((1-(4-(propylsulfonyl)piperazin-1-yl)cyclohexyl)methyl) benzamide Hydrochloride], the IC50 came to 590 nM.

Regarding `CCCS(=O)(=O)N1CCN(C2(CNC(=O)c3ccc(C4CC4)cc3Cl)CCC(F)(F)CC2)CC1` [compound 247, 2-Chloro-4-cyclopropyl-N-((4,4-difluoro-1-(4-(propylsulfonyl)piperazin-1-yl)cyclohexyl)methyl) benzamide Hydrochloride], the IC50 is 37 nM.

Take `Cn1cnc(S(=O)(=O)N2CCN(C3(CNC(=O)c4c(Cl)cccc4Cl)CCC(F)(F)CC3)CC2)c1` [compound 174, 2,6-Dichloro-N-((4,4-difluoro-1-(4-(1-methyl-1H-imidazol-4-ylsulfonyl)piperazin-1-yl)cyclohexyl)methyl) benzamide Hydrochloride]: the IC50 worked out at 5 nM.

In the case of `Cc1ccccc1C(=O)NCC1(N2CCN(S(=O)(=O)c3cn(C)cn3)CC2)CCC(F)(F)CC1` [compound 179, N-((4,4-difluoro-1-(4-(1-methyl-1H-imidazol-4-ylsulfonyl)piperazin-1-yl)cyclohexyl)methyl)-2-methylbenzamide Hydrochloride], the 50% inhibitory concentration (IC50) worked out at 25 nM.

Take `CCS(=O)(=O)N1CCN(C2(CNC(=O)c3c(F)ccc(C(F)(F)F)c3F)CCC(F)(F)CC2)CC1` [compound 211, N-((1-(4-(Ethylsulfonyl)piperazin-1-yl)-4,4-difluorocyclohexyl)methyl)-2,6-difluoro-3-(trifluoromethyl) benzamide Hydrochloride]: the IC50 is 2780 nM.

Regarding `CCS(=O)(=O)N1CCN(C2(CNC(=O)c3c(F)cc(Cl)cc3Cl)CCC(F)(F)CC2)CC1` [compound 210, 2,4-Dichloro-N-((1-(4-(ethylsulfonyl)piperazin-1-yl)-4,4-difluorocyclohexyl)methyl)-6-fluorobenzamide Hydrochloride], the concentration for half-maximal inhibition (IC50) was 72 nM.

For the compound `Cl.[2H]C([2H])([2H])n1cc(S(=O)(=O)N2CCN(C3(CNC(=O)c4ccc(C(F)(F)F)cc4Cl)CCC(F)(F)CC3)CC2)nn1` [compound 240, 2-Chloro-N-((4,4-difluoro-1-(4-(1-(tris-deutero)methyl-1H-1,2,3-triazol-4-ylsulfonyl)piperazin-1-yl)cyclohexyl)methyl)-4-(trifluoromethyl)benzamide Hydrochloride], the IC50 was 49 nM.

For the compound `Cn1ccc(S(=O)(=O)N2CCN(C3(CNC(=O)c4ccc(C(F)(F)F)cc4Cl)CCC(F)(F)CC3)CC2)n1` [compound 283, 2-Chloro-N-((4,4-difluoro-1-(4-(1-methyl-1H-pyrazol-3-ylsulfonyl)piperazin-1-yl)cyclohexyl)methyl)-4-(trifluoromethyl)benzamide Hydrochloride], the 50% inhibitory concentration (IC50) stood at 2410 nM.

With `CC(NC(=O)c1ccc(C(F)(F)F)cc1Cl)C1(N2CCN(S(=O)(=O)c3cn(C)nn3)CC2)CCCC1` (stereo not drawn) [compound 282, 2-Chloro-N-(1-(1-(4-(1-methyl-1H-1,2,3-triazol-4-ylsulfonyl)piperazin-1-yl)cyclopentyl)ethyl)-4-(trifluoromethyl)benzamide Hydrochloride], the IC50 came out at 29 nM.

Consider `Cc1cc(F)c(C(=O)NCC2(N3CCN(S(=O)(=O)c4cn(C)nn4)CC3)CCC(F)(F)CC2)cc1F` [compound 239, N-((4,4-Difluoro-1-(4-(1-methyl-1H-1,2,3-triazol-4-ylsulfonyl)piperazin-1-yl)cyclohexyl)methyl)-2,5-difluoro-4-methylbenz-amide Hydrochloride], for which the IC50 was 20 nM.

With `CC(O)CS(=O)(=O)N1CCN(C2(CNC(=O)c3ccc(C(F)(F)F)cc3Cl)CCC(F)(F)CC2)CC1` (single isomer, unassigned; enantiomer b) [compound 279, (Enantiomer B)-2-Chloro-N-((4,4-difluoro-1-(4-(2-hydroxypropylsulfonyl)piperazin-1-yl)cyclohexyl)methyl)-4-(trifluoromethyl) benzamide Hydrochloride], the half-maximal inhibitory concentration (IC50) was 68 nM.

In the case of `CC1CN(S(=O)(=O)c2cn(C)nn2)C(C)CN1C1(CNC(=O)c2ccc(C(F)(F)F)cc2C(F)(F)F)CCC(F)(F)CC1` (stereo not drawn) [compound 237, N-((1-(2,5-Dimethyl-4-(1-methyl-1H-1,2,3-triazol-4-ylsulfonyl)piperazin-1-yl)-4,4-difluorocyclohexyl)methyl)-2,4-bis(trifluoromethyl) benzamide Hydrochloride], the IC50 came to 2 nM.
